# The source made the active and inactive calls. No rule for the calls is given here.
# Columns and labels:
# Format in all cases: functional
# Aspergillus oryzae [1] = assay: Antimicrobial activity against Aspergillus oryzae MTCC 3567 at 1000 ug/ml after 72 hrs by cup plate method; conditions: MTCC 3567, 72 h, read-out: IZ
# Aspergillus flavus [2] = assay: Antimicrobial activity against Aspergillus flavus MTCC 1973 at 1000 ug/ml after 72 hrs by cup plate method; conditions: MTCC 1973, 72 h, read-out: IZ
# Aspergillus niger [3] = assay: Antimicrobial activity against Aspergillus niger MTCC 281 at 500 ug/ml after 72 hrs by cup plate method; conditions: MTCC 281, 72 h, read-out: IZ
# Aspergillus terreus [4] = assay: Antimicrobial activity against Aspergillus terreus MTCC 1782 at 750 ug/ml after 72 hrs by cup plate method; conditions: MTCC 1782, 72 h, read-out: IZ
# Escherichia coli [5] = assay: Antimicrobial activity against Escherichia coli MTCC 723 at 750 ug/ml after 24 hrs by cup plate method; conditions: MTCC 723, 24 h, read-out: IZ
# Aspergillus niger [6] = assay: Antimicrobial activity against Aspergillus niger MTCC 281 at 1000 ug/ml after 72 hrs by cup plate method; conditions: MTCC 281, 72 h, read-out: IZ
# Staphylococcus aureus [7] = assay: Antimicrobial activity against Staphylococcus aureus ATCC 29513 at 750 ug/ml after 24 hrs by cup plate method; conditions: ATCC 29513, 24 h, read-out: IZ
# Pseudomonas aeruginosa [8] = assay: Antimicrobial activity against Pseudomonas aeruginosa MTCC 1688 at 1000 ug/ml after 24 hrs by cup plate method; conditions: MTCC 1688, 24 h, read-out: IZ
# Staphylococcus aureus [9] = assay: Antimicrobial activity against Staphylococcus aureus ATCC 29513 at 500 ug/ml after 24 hrs by cup plate method; conditions: ATCC 29513, 24 h, read-out: IZ
# Klebsiella pneumoniae [10] = assay: Antimicrobial activity against Klebsiella pneumoniae NCTC 13368 at 500 ug/ml after 24 hrs by cup plate method; conditions: NCTC 13368, 24 h, read-out: IZ
# [11] = Antioxidant activity assessed as metal chelating activity by measuring inhibition of ferrozine-Fe2+ complex formation at 25 to 100 ug/ml
# Pseudomonas aeruginosa [12] = assay: Antimicrobial activity against Pseudomonas aeruginosa MTCC 1688 at 500 ug/ml after 24 hrs by cup plate method; conditions: MTCC 1688, 24 h, read-out: IZ
# Pseudomonas aeruginosa [13] = assay: Antimicrobial activity against Pseudomonas aeruginosa MTCC 1688 at 750 ug/ml after 24 hrs by cup plate method; conditions: MTCC 1688, 24 h, read-out: IZ
# Escherichia coli [14] = assay: Antimicrobial activity against Escherichia coli MTCC 723 at 500 ug/ml after 24 hrs by cup plate method; conditions: MTCC 723, 24 h, read-out: IZ
# Staphylococcus aureus [15] = assay: Antimicrobial activity against Staphylococcus aureus ATCC 29513 at 1000 ug/ml after 24 hrs by cup plate method; conditions: ATCC 29513, 24 h, read-out: IZ
# Aspergillus terreus [16] = assay: Antimicrobial activity against Aspergillus terreus MTCC 1782 at 1000 ug/ml after 72 hrs by cup plate method; conditions: MTCC 1782, 72 h, read-out: IZ
# Aspergillus niger [17] = assay: Antimicrobial activity against Aspergillus niger MTCC 281 at 750 ug/ml after 72 hrs by cup plate method; conditions: MTCC 281, 72 h, read-out: IZ
# Escherichia coli [18] = assay: Antimicrobial activity against Escherichia coli MTCC 723 at 1000 ug/ml after 24 hrs by cup plate method; conditions: MTCC 723, 24 h, read-out: IZ
# Aspergillus terreus [19] = assay: Antimicrobial activity against Aspergillus terreus MTCC 1782 at 500 ug/ml after 72 hrs by cup plate method; conditions: MTCC 1782, 72 h, read-out: IZ
# Klebsiella pneumoniae [20] = assay: Antimicrobial activity against Klebsiella pneumoniae NCTC 13368 at 1000 ug/ml after 24 hrs by cup plate method; conditions: NCTC 13368, 24 h, read-out: IZ
# Aspergillus oryzae [21] = assay: Antimicrobial activity against Aspergillus oryzae MTCC 3567 at 500 ug/ml after 72 hrs by cup plate method; conditions: MTCC 3567, 72 h, read-out: IZ
# Aspergillus oryzae [22] = assay: Antimicrobial activity against Aspergillus oryzae MTCC 3567 at 750 ug/ml after 72 hrs by cup plate method; conditions: MTCC 3567, 72 h, read-out: IZ
# Klebsiella pneumoniae [23] = assay: Antimicrobial activity against Klebsiella pneumoniae NCTC 13368 at 750 ug/ml after 24 hrs by cup plate method; conditions: NCTC 13368, 24 h, read-out: IZ
# Aspergillus flavus [24] = assay: Antimicrobial activity against Aspergillus flavus MTCC 1973 at 500 ug/ml after 72 hrs by cup plate method; conditions: MTCC 1973, 72 h, read-out: IZ
# Aspergillus flavus [25] = assay: Antimicrobial activity against Aspergillus flavus MTCC 1973 at 750 ug/ml after 72 hrs by cup plate method; conditions: MTCC 1973, 72 h, read-out: IZ
compound,measurement,setting,value
N#CC1=C(N)OC(c2ccc(Cl)cc2)=CC1c1c(-c2ccccc2)[nH]c2ccccc12 (stereo not given),zone of inhibition at 1000 µg/mL,Aspergillus oryzae [1],3 mm
same,zone of inhibition at 1000 µg/mL,Aspergillus flavus [2],2 mm
same,zone of inhibition at 500 µg/mL,Aspergillus niger [3],8 mm
same,zone of inhibition at 750 µg/mL,Aspergillus terreus [4],13 mm
same,zone of inhibition at 750 µg/mL,Escherichia coli [5],5 mm
same,zone of inhibition at 1000 µg/mL,Aspergillus niger [6],5 mm
same,zone of inhibition at 750 µg/mL,Staphylococcus aureus [7],10 mm
same,zone of inhibition at 1000 µg/mL,Pseudomonas aeruginosa [8],8 mm
same,zone of inhibition at 500 µg/mL,Staphylococcus aureus [9],10 mm
same,zone of inhibition at 500 µg/mL,Klebsiella pneumoniae [10],2 mm
same,Activity,[11],Active
same,zone of inhibition at 500 µg/mL,Pseudomonas aeruginosa [12],10 mm
same,zone of inhibition at 750 µg/mL,Pseudomonas aeruginosa [13],8 mm
same,zone of inhibition at 500 µg/mL,Escherichia coli [14],5 mm
same,zone of inhibition at 1000 µg/mL,Staphylococcus aureus [15],10 mm
same,zone of inhibition at 1000 µg/mL,Aspergillus terreus [16],13 mm
same,zone of inhibition at 750 µg/mL,Aspergillus niger [17],6 mm
same,zone of inhibition at 1000 µg/mL,Escherichia coli [18],3 mm
same,zone of inhibition at 500 µg/mL,Aspergillus terreus [19],12 mm
same,zone of inhibition at 1000 µg/mL,Klebsiella pneumoniae [20],2 mm
same,zone of inhibition at 500 µg/mL,Aspergillus oryzae [21],9 mm
same,zone of inhibition at 750 µg/mL,Aspergillus oryzae [22],9 mm
same,zone of inhibition at 750 µg/mL,Klebsiella pneumoniae [23],2 mm
N#Cc1c(N)c2c(N)c3c(nc2oc1=O)OC(c1ccccc1)=CC3c1c(-c2ccccc2)[nH]c2ccc(Cl)cc12 (stereo not given),zone of inhibition at 1000 µg/mL,Aspergillus oryzae [1],13 mm
same,zone of inhibition at 500 µg/mL,Aspergillus flavus [24],5 mm
same,zone of inhibition at 500 µg/mL,Aspergillus niger [3],9 mm
same,zone of inhibition at 750 µg/mL,Aspergillus terreus [4],3 mm
same,zone of inhibition at 750 µg/mL,Escherichia coli [5],10 mm
same,zone of inhibition at 1000 µg/mL,Aspergillus niger [6],10 mm
same,zone of inhibition at 750 µg/mL,Staphylococcus aureus [7],13 mm
same,zone of inhibition at 750 µg/mL,Aspergillus flavus [25],3 mm
same,zone of inhibition at 1000 µg/mL,Pseudomonas aeruginosa [8],5 mm
same,zone of inhibition at 500 µg/mL,Staphylococcus aureus [9],13 mm
same,zone of inhibition at 500 µg/mL,Klebsiella pneumoniae [10],5 mm
same,Activity,[11],Active
same,zone of inhibition at 500 µg/mL,Pseudomonas aeruginosa [12],9 mm
same,zone of inhibition at 750 µg/mL,Pseudomonas aeruginosa [13],8 mm
same,zone of inhibition at 500 µg/mL,Escherichia coli [14],10 mm
same,zone of inhibition at 1000 µg/mL,Staphylococcus aureus [15],14 mm
same,zone of inhibition at 1000 µg/mL,Aspergillus terreus [16],3 mm
same,zone of inhibition at 750 µg/mL,Aspergillus niger [17],9 mm
same,zone of inhibition at 1000 µg/mL,Escherichia coli [18],8 mm
same,zone of inhibition at 500 µg/mL,Aspergillus terreus [19],3 mm
same,zone of inhibition at 1000 µg/mL,Klebsiella pneumoniae [20],5 mm
same,zone of inhibition at 500 µg/mL,Aspergillus oryzae [21],12 mm
same,zone of inhibition at 750 µg/mL,Aspergillus oryzae [22],12 mm
same,zone of inhibition at 750 µg/mL,Klebsiella pneumoniae [23],5 mm
CN[C@@H]1[C@H](O[C@H]2[C@H](O[C@H]3[C@H](O)[C@@H](O)[C@H](N=C(N)N)[C@@H](O)[C@@H]3N=C(N)N)O[C@@H](C)[C@]2(O)C=O)O[C@@H](CO)[C@H](O)[C@H]1O [STREPTOMYCIN],zone of inhibition at 750 µg/mL,Escherichia coli [5],14 mm
same,zone of inhibition at 750 µg/mL,Staphylococcus aureus [7],15 mm
same,zone of inhibition at 1000 µg/mL,Pseudomonas aeruginosa [8],14 mm
same,zone of inhibition at 500 µg/mL,Staphylococcus aureus [9],15 mm
same,zone of inhibition at 500 µg/mL,Klebsiella pneumoniae [10],14 mm
same,zone of inhibition at 500 µg/mL,Pseudomonas aeruginosa [12],13 mm
same,zone of inhibition at 750 µg/mL,Pseudomonas aeruginosa [13],13 mm
same,zone of inhibition at 500 µg/mL,Escherichia coli [14],14 mm
same,zone of inhibition at 1000 µg/mL,Staphylococcus aureus [15],15 mm
same,zone of inhibition at 1000 µg/mL,Escherichia coli [18],15 mm
same,zone of inhibition at 1000 µg/mL,Klebsiella pneumoniae [20],14 mm
same,zone of inhibition at 750 µg/mL,Klebsiella pneumoniae [23],14 mm
OC(Cn1cncn1)(Cn1cncn1)c1ccc(F)cc1F [FLUCONAZOLE],zone of inhibition at 1000 µg/mL,Aspergillus oryzae [1],14 mm
same,zone of inhibition at 1000 µg/mL,Aspergillus flavus [2],14 mm
same,zone of inhibition at 500 µg/mL,Aspergillus flavus [24],13 mm
same,zone of inhibition at 500 µg/mL,Aspergillus niger [3],13 mm
same,zone of inhibition at 750 µg/mL,Aspergillus terreus [4],14 mm
same,zone of inhibition at 1000 µg/mL,Aspergillus niger [6],14 mm
same,zone of inhibition at 750 µg/mL,Aspergillus flavus [25],13 mm
same,zone of inhibition at 1000 µg/mL,Aspergillus terreus [16],14 mm
same,zone of inhibition at 750 µg/mL,Aspergillus niger [17],13 mm
same,zone of inhibition at 500 µg/mL,Aspergillus terreus [19],13 mm
same,zone of inhibition at 500 µg/mL,Aspergillus oryzae [21],13 mm
same,zone of inhibition at 750 µg/mL,Aspergillus oryzae [22],14 mm
N#Cc1c(N)c2c(N)c3c(nc2oc1=O)OC(c1ccccc1)=CC3c1c(-c2ccccc2)[nH]c2ccccc12 (stereo not given),zone of inhibition at 1000 µg/mL,Aspergillus oryzae [1],11 mm
same,zone of inhibition at 500 µg/mL,Aspergillus flavus [24],5 mm
same,zone of inhibition at 500 µg/mL,Aspergillus niger [3],5 mm
same,zone of inhibition at 750 µg/mL,Aspergillus terreus [4],5 mm
same,zone of inhibition at 750 µg/mL,Escherichia coli [5],8 mm
same,zone of inhibition at 1000 µg/mL,Aspergillus niger [6],10 mm
same,zone of inhibition at 750 µg/mL,Staphylococcus aureus [7],10 mm
same,zone of inhibition at 750 µg/mL,Aspergillus flavus [25],3 mm
same,zone of inhibition at 1000 µg/mL,Pseudomonas aeruginosa [8],3 mm
same,zone of inhibition at 500 µg/mL,Staphylococcus aureus [9],10 mm
same,zone of inhibition at 500 µg/mL,Klebsiella pneumoniae [10],11 mm
same,Activity,[11],Active
same,zone of inhibition at 500 µg/mL,Pseudomonas aeruginosa [12],5 mm
same,zone of inhibition at 750 µg/mL,Pseudomonas aeruginosa [13],7 mm
same,zone of inhibition at 500 µg/mL,Escherichia coli [14],8 mm
same,zone of inhibition at 1000 µg/mL,Staphylococcus aureus [15],9 mm
same,zone of inhibition at 1000 µg/mL,Aspergillus terreus [16],5 mm
same,zone of inhibition at 750 µg/mL,Aspergillus niger [17],3 mm
same,zone of inhibition at 1000 µg/mL,Escherichia coli [18],10 mm
same,zone of inhibition at 500 µg/mL,Aspergillus terreus [19],5 mm
same,zone of inhibition at 1000 µg/mL,Klebsiella pneumoniae [20],10 mm
same,zone of inhibition at 500 µg/mL,Aspergillus oryzae [21],11 mm
same,zone of inhibition at 750 µg/mL,Aspergillus oryzae [22],11 mm
same,zone of inhibition at 750 µg/mL,Klebsiella pneumoniae [23],11 mm

# — ChEMBL document CHEMBL2346657, “Synthesis of novel 2-amino-4-(5'-substituted 2'-phenyl-1H-indol-3'-yl)-6-aryl-4H-pyran-3-carbonitrile derivatives as antimicrobial and antioxidant agents” (2013)
